Patent US9657305B2, “Synthesis of sialic acid in plants” (Medicago, Inc., priority 2006, dated 2017)

Assays:
tobacco BY2 cells [1] = assay: Toxicity of Neu5Ac on tobacco BY2 cells (cell viability, propidium iodide and fluorescein diacetate); assay type: cell-based, Nicotiana tabacum; conditions: 10 mM Neu5Ac, 48 h period
[2] = Stability of the recombinant enzymes expressed in the plant cytosol; conditions: tobacco BY2 cells, alfalfa plants or transient expression
Description: The synthesis of Neu5Ac in presence of pyruvate and ManNAc was also observed.

[3] = Synthase activity of recombinant Neu5Ac lyase (formation of Neu5Ac from D-ManNAc and pyruvate, GC-EI MS); assay type: biochemical; conditions: pH 7, […]° C.
Protocol: Soluble enzyme activities were assayed by incubating cell extracts with PEP 4 mM, NADH 4 mM, NaHCO3 20 mM and DTE 10 mM. Oxydation of NADH was measured by a diminution of absorbance at 340 nm after 10 min. […] Cells extracts were incubated 2 h at 37° C. in Solution B (100 mM Tris-HCl buffer, pH=7.4 and 10 mM MgCl2) containing proteinase inhibitors (pepstatine 1 μg·mL^−1, E64 1 μg·mL^1 and PMSF 1 mM) and Neu5Ac 40 mM. […] Cells extracts were incubated 2 h at 37° C. in Solution B (100 mM […], pH=7.4 and 10 mM MgCl2) containing proteinase inhibitors (pepstatine 1 μg·mL^−1, E64 1 μg·mL^1 and PMSF 1 mM) and ManNAc 20 mM and pyruvate 40 mM. Synthase activity of NeuB2 was assayed by measuring the formation of Neu5Ac after incubating transformants cells extracts with ManNAc and PEP. Cells extracts were incubated 2 h at 37° C. in Solution B (100 mM Tris-HCl buffer, pH=7.4 and 10 mM MgCl2) containing proteinase inhibitors (pepstatine 1 μg·mL^−1, E64 1 μg·mL^−1 and PMSF 1 mM) and ManNAc 10 mM and PEP 10 mM. […]
For the enzymatic assays, the reaction mixtures were first submitted to a purification step on C18 Seppack cartridges. […] The quantification of sugar was done by integration of peaks and determination of the corresponding molar values using response factors established with standard monosaccharides. […]

tobacco BY2 cells [4] = assay: In planta activity of Neu5Ac lyase: feeding transformed tobacco BY2 cells with Neu5Ac, GC of cytosolic monosaccharides; assay type: cell-based, Nicotiana tabacum; conditions: BY2 cells fed 10 mM Neu5Ac, 48 h
Protocol: After 2 d, BY2 cells were washed with BY2 medium without Neu5Ac or ManNAc and harvested. The cells were heated at 70° C. for 15 min in 70% ethanol to inactivate enzymes and then ground in a potter homogenizer. The homogenate was washed two times with 70% ethanol at 70° C. The remaining pellet and the supernatant were considered as representatives of the cell walls and the cytosolic free monosaccharides respectively. Monosaccharides of the supernatant fraction were then analysed by gas chromatography
The formation of D-ManNAc was determined by analysing cytosolic monosaccharides by GC after a 48 h period at temperature ranging from 23° C. to 37° C.

Molecule | toxicity of Neu5Ac on tobacco BY2 cells (cell viability) (tobacco BY2 cells [1]) | degradation of recombinant protein in the cytosol [2] | ability to synthesise Neu5Ac [3] | increase in D-ManNAc content at 37° C. compared to 23° C. (tobacco BY2 cells [4]) [fold]
CC(=O)N[C@H]1[C@H]([C@H](O)[C@H](O)CO)OC(O)(C(=O)O)C[C@@H]1O (stereo partly shown) [Neu5Ac, N-acetyl neuraminic acid] | no toxic effects were observed |  |  | 
Neu5Ac lyase: Neu5Ac lyase from Escherichia coli K1 (accession number D00067) expressed in tobacco BY2 cells |  | No degradation | able to synthesise Neu5Ac | 25
